Results on 11 compounds are retold here after patent publication US6939946B2, “Ring modified cyclic peptide analogs” (Eli Lilly and Company, priority 1998, dated 2005).

Counter-ions that a name gives are not always drawn. Bridge positions count the residues as written; N and C are the ends. Square brackets hold non-standard residues; d marks the D form. Peptide text beside a SMILES is read from it. * marks the point of attachment. ξ: configuration not given here. pTerphenylCO(4''-OnC5H11) = CCCCCOc1ccc(-c2ccc(-c3ccc(C(=O)*)cc3)cc2)cc1; Pro(3S-OH,4S-Me) = C[C@H]1CN[C@H](C(=O)O)[C@H]1O; hTyr(3R-OH) = N[C@H](C(=O)O)[C@H](O)Cc1ccc(O)cc1; Hyp = O=C(O)[C@@H]1C[C@@H](O)CN1; Thr(3ξ) = CC(O)[C@H](N)C(=O)O; dOrn = NCCC[C@@H](N)C(=O)O; Orn = NCCC[C@H](N)C(=O)O; Dab = NCC[C@H](N)C(=O)O; ξDap = NCC(N)C(=O)O

Some test systems named below: C. parapsilosis; A. fumigatus; C. albicans; Histoplasma capsulatum.
Holding throughout (conditions): in vitro

For `CCCCCOc1ccc(-c2ccc(-c3ccc(C(=O)N[C@H]4CCN(C)NC(=O)[C@@H]5[C@@H](O)[C@@H](C)CN5C(=O)[C@H](C(C)O)NC(=O)[C@H]([C@H](O)Cc5ccc(O)cc5)NC(=O)[C@@H]5C[C@@H](O)CN5C(=O)[C@H](C(C)O)NC4=O)cc3)cc2)cc1` (single isomer, unassigned) [E2-11(a) HCl salt], in the assay with C. parapsilosis, the “Minimal Inhibitory Concentration MIC C. parapsilosis” value came to 0.156 µg/mL. For the same compound, the “Minimal Inhibitory Concentration MIC A. fumigatus” value in the assay on A. fumigatus is 0.078 µg/mL. The “Minimal Inhibitory Concentration MIC C. albicans” value with C. albicans turned out to be 0.001 µg/mL. In addition, the “Minimal Inhibitory Concentration MIC Histoplasma capsulatum” value with Histoplasma capsulatum was determined as 0.02 µg/mL.

Take `CCCCCOc1ccc(-c2ccc(-c3ccc(C(=O)N[C@H]4CCN(C)NC(=O)[C@@H]5[C@@H](O)[C@@H](C)CN5C(=O)[C@H](C(C)O)NC(=O)[C@H]([C@H](O)Cc5ccc(O)cc5)NC(=O)[C@@H]5C[C@@H](O)CN5C(=O)[C@H](C(C)O)NC4=O)cc3)cc2)cc1` (single isomer, unassigned) [E2-11(a) TFA salt]: the “Minimal Inhibitory Concentration MIC C. parapsilosis” value in the assay on C. parapsilosis was 0.156 µg/mL. Moreover, the “Minimal Inhibitory Concentration MIC A. fumigatus” value in the assay on A. fumigatus is 0.039 µg/mL. Besides, the “Minimal Inhibitory Concentration MIC C. albicans” value in the assay with C. albicans stood at 0.005 µg/mL. In addition, in the assay on Histoplasma capsulatum, the “Minimal Inhibitory Concentration MIC Histoplasma capsulatum” value was 0.78 µg/mL.

`CCCCCOc1ccc(-c2ccc(-c3ccc(C(=O)N[C@H]4CCN(C(=O)C(N)CN)NC(=O)[C@@H]5[C@@H](O)[C@@H](C)CN5C(=O)[C@H](C(C)O)NC(=O)[C@H]([C@H](O)Cc5ccc(O)cc5)NC(=O)[C@@H]5C[C@@H](O)CN5C(=O)[C@H](C(C)O)NC4=O)cc3)cc2)cc1` (single isomer, unassigned) [E2-13 (isomer 1)]: the “Minimal Inhibitory Concentration MIC C. parapsilosis” value in the assay with C. parapsilosis came to 2.5 µg/mL. For the same compound, in the assay with A. fumigatus, the “Minimal Inhibitory Concentration MIC A. fumigatus” value was found to be 0.625 µg/mL. The “Minimal Inhibitory Concentration MIC C. albicans” value in the assay with C. albicans was determined as 0.078 µg/mL. The “Minimal Inhibitory Concentration MIC Histoplasma capsulatum” value with Histoplasma capsulatum turned out to be 1.25 µg/mL.

`CCCCCOc1ccc(-c2ccc(-c3ccc(C(=O)N[C@H]4CCN(C(=O)C(N)CN)NC(=O)[C@@H]5[C@@H](O)[C@@H](C)CN5C(=O)[C@H](C(C)O)NC(=O)[C@H]([C@H](O)Cc5ccc(O)cc5)NC(=O)[C@@H]5C[C@@H](O)CN5C(=O)[C@H](C(C)O)NC4=O)cc3)cc2)cc1` (single isomer, unassigned) [E2-13 (isomer 2)]: the “Minimal Inhibitory Concentration MIC C. parapsilosis” value in the assay on C. parapsilosis was 20 µg/mL. Further, the “Minimal Inhibitory Concentration MIC A. fumigatus” value in the assay on A. fumigatus is 1.25 µg/mL. Also, the “Minimal Inhibitory Concentration MIC C. albicans” value with C. albicans amounted to 0.156 µg/mL. Also, the “Minimal Inhibitory Concentration MIC Histoplasma capsulatum” value in the assay with Histoplasma capsulatum is 10 µg/mL.

In the case of `CCCCCOc1ccc(-c2ccc(-c3ccc(C(=O)N[C@H]4CCCNC(=O)[C@@H]5[C@@H](O)[C@@H](C)CN5C(=O)[C@H](C(C)O)NC(=O)[C@H]([C@H](O)Cc5ccc(O)cc5)NC(=O)[C@@H]5C[C@@H](O)CN5C(=O)[C@H](C(C)O)NC4=O)cc3)cc2)cc1` (stereo partly drawn) [Compound E1-3] ({pTerphenylCO(4''-OnC5H11)}-[Orn][Thr(3ξ)][Hyp][hTyr(3R-OH)][Thr(3ξ)][Pro(3S-OH,4S-Me)]; lactam 1-C), the “Minimal Inhibitory Concentration MIC C. parapsilosis” value in the assay with C. parapsilosis came out at 0.156 µg/mL. Also, the “Minimal Inhibitory Concentration MIC A. fumigatus” value in the assay with A. fumigatus is 0.078 µg/mL. Further, the “Minimal Inhibitory Concentration MIC C. albicans” value in the assay on C. albicans turned out to be 0.005 µg/mL. Further, in the assay on Histoplasma capsulatum, the “Minimal Inhibitory Concentration MIC Histoplasma capsulatum” value came out at 0.156 µg/mL.

As for `CCCCCOc1ccc(-c2ccc(-c3ccc(C(=O)N[C@@H]4CCCNC(=O)[C@@H]5[C@@H](O)[C@@H](C)CN5C(=O)[C@H](C(C)O)NC(=O)[C@H]([C@H](O)Cc5ccc(O)cc5)NC(=O)[C@@H]5C[C@@H](O)CN5C(=O)[C@H](C(C)O)NC4=O)cc3)cc2)cc1` (stereo partly drawn) [Compound E1-4] ({pTerphenylCO(4''-OnC5H11)}-[dOrn][Thr(3ξ)][Hyp][hTyr(3R-OH)][Thr(3ξ)][Pro(3S-OH,4S-Me)]; lactam 1-C), the “Minimal Inhibitory Concentration MIC C. parapsilosis” value with C. parapsilosis was over 20 µg/mL. In the assay on A. fumigatus, the “Minimal Inhibitory Concentration MIC A. fumigatus” value is 20.0 µg/mL. In addition, the “Minimal Inhibitory Concentration MIC C. albicans” value in the assay with C. albicans came out at 1.25 µg/mL. For the same compound, the “Minimal Inhibitory Concentration MIC Histoplasma capsulatum” value in the assay on Histoplasma capsulatum came out at 5.0 µg/mL.

Regarding `CCCCCOc1ccc(-c2ccc(-c3ccc(C(=O)N[C@H]4CCCCNC(=O)[C@@H]5[C@@H](O)[C@@H](C)CN5C(=O)[C@H](C(C)O)NC(=O)[C@H]([C@H](O)Cc5ccc(O)cc5)NC(=O)[C@@H]5C[C@@H](O)CN5C(=O)[C@H](C(C)O)NC4=O)cc3)cc2)cc1` (stereo partly drawn) [Compound E1-5] ({pTerphenylCO(4''-OnC5H11)}-K[Thr(3ξ)][Hyp][hTyr(3R-OH)][Thr(3ξ)][Pro(3S-OH,4S-Me)]; lactam 1-C), the “Minimal Inhibitory Concentration MIC C. parapsilosis” value in the assay on C. parapsilosis was over 20 µg/mL. The “Minimal Inhibitory Concentration MIC A. fumigatus” value with A. fumigatus was found to be 2.5 µg/mL. The “Minimal Inhibitory Concentration MIC C. albicans” value in the assay on C. albicans came out at 0.02 µg/mL. The “Minimal Inhibitory Concentration MIC Histoplasma capsulatum” value in the assay on Histoplasma capsulatum is 0.156 µg/mL.

On to `CCCCCOc1ccc(-c2ccc(-c3ccc(C(=O)N[C@H]4CCNC(=O)[C@@H]5[C@@H](O)[C@@H](C)CN5C(=O)[C@H](C(C)O)NC(=O)[C@H]([C@H](O)Cc5ccc(O)cc5)NC(=O)[C@@H]5C[C@@H](O)CN5C(=O)[C@H](C(C)O)NC4=O)cc3)cc2)cc1` (stereo partly drawn) [Compound E1-6] ({pTerphenylCO(4''-OnC5H11)}-[Dab][Thr(3ξ)][Hyp][hTyr(3R-OH)][Thr(3ξ)][Pro(3S-OH,4S-Me)]; lactam 1-C), for which, in the assay on C. parapsilosis, the “Minimal Inhibitory Concentration MIC C. parapsilosis” value is over 20 µg/mL. In addition, the “Minimal Inhibitory Concentration MIC A. fumigatus” value in the assay on A. fumigatus is 20 µg/mL. Moreover, in the assay with C. albicans, the “Minimal Inhibitory Concentration MIC C. albicans” value came out at 0.039 µg/mL. Moreover, the “Minimal Inhibitory Concentration MIC Histoplasma capsulatum” value in the assay on Histoplasma capsulatum stood at 0.078 µg/mL.

With `CCCCCOc1ccc(-c2ccc(-c3ccc(C(=O)NC4CNC(=O)[C@@H]5[C@@H](O)[C@@H](C)CN5C(=O)[C@H](C(C)O)NC(=O)[C@H]([C@H](O)Cc5ccc(O)cc5)NC(=O)[C@@H]5C[C@@H](O)CN5C(=O)[C@H](C(C)O)NC4=O)cc3)cc2)cc1` (stereo partly drawn) [Compound E1-7] ({pTerphenylCO(4''-OnC5H11)}-[ξDap][Thr(3ξ)][Hyp][hTyr(3R-OH)][Thr(3ξ)][Pro(3S-OH,4S-Me)]; lactam 1-C), in the assay with C. parapsilosis, the “Minimal Inhibitory Concentration MIC C. parapsilosis” value is over 20 µg/mL. Further, in the assay with A. fumigatus, the “Minimal Inhibitory Concentration MIC A. fumigatus” value was determined as 0.625 µg/mL. In addition, the “Minimal Inhibitory Concentration MIC C. albicans” value in the assay with C. albicans is 0.312 µg/mL. In addition, the “Minimal Inhibitory Concentration MIC Histoplasma capsulatum” value in the assay on Histoplasma capsulatum came out at 0.625 µg/mL.

Take `CCCCCOc1ccc(-c2ccc(-c3ccc(C(=O)N[C@H]4CCN(C(=O)CN)NC(=O)[C@@H]5[C@@H](O)[C@@H](C)CN5C(=O)[C@H](C(C)O)NC(=O)[C@H]([C@H](O)Cc5ccc(O)cc5)NC(=O)[C@@H]5C[C@@H](O)CN5C(=O)[C@H](C(C)O)NC4=O)cc3)cc2)cc1` (some centres unmarked) [Compound E2-12]: the “Minimal Inhibitory Concentration MIC C. parapsilosis” value with C. parapsilosis worked out at 0.312 µg/mL. Moreover, in the assay with A. fumigatus, the “Minimal Inhibitory Concentration MIC A. fumigatus” value came to 0.156 µg/mL. Moreover, the “Minimal Inhibitory Concentration MIC C. albicans” value with C. albicans stood at 0.01 µg/mL. Moreover, in the assay on Histoplasma capsulatum, the “Minimal Inhibitory Concentration MIC Histoplasma capsulatum” value was 0.039 µg/mL.

As to `CCCCCOc1ccc(-c2ccc(-c3ccc(C(=O)NC4CS(=O)(=O)CCNC(=O)[C@@H]5[C@H](O)[C@@H](C)CN5C(=O)[C@H]([C@@H](C)O)NC(=O)[C@H]([C@H](O)Cc5ccc(O)cc5)NC(=O)[C@@H]5C[C@@H](O)CN5C(=O)[C@H]([C@@H](C)O)NC4=O)cc3)cc2)cc1` (some centres unmarked) [Compound E3-6], in the assay with C. parapsilosis, the “Minimal Inhibitory Concentration MIC C. parapsilosis” value is over 20 µg/mL. Also, in the assay on A. fumigatus, the “Minimal Inhibitory Concentration MIC A. fumigatus” value is 20 µg/mL. For the same compound, the “Minimal Inhibitory Concentration MIC C. albicans” value in the assay on C. albicans worked out at 10 µg/mL. Moreover, the “Minimal Inhibitory Concentration MIC Histoplasma capsulatum” value in the assay on Histoplasma capsulatum was found to be 10 µg/mL.
